The target in test [1] is T1, recombinant human STIM1 and Orai1 (HEK-293 cells) (Homo sapiens, UniProt Q96D31).
T1 construct: expressed in transfected cells; host or cells: HEK-293 cells stably expressing both proteins
The test is described as follows: Fluorescence-based assay of store-operated calcium entry in Orai1/STIM1 stable cells. The class given is cell-based. Particulars: fluo-4, 50% inhibition of Peak-Basal signal. Here is the method:
A. Fluorescence-based Assay of Store-Operated Calcium Entry in Orai1/STIM1 Stable Cells.
Cells stably expressing recombinant human STIM1 and Orai1 are generated by transfecting a human Orai1 expression plasmid (pcDNA3.1-Orai1-cmyc) into HEK-293 cells stably overexpressing human STIM1 (Roos et al. 2005 JCB 169(3): 435-445). Colonies of cells stably expressing both STIM1 and Orai1 proteins are selected and then subcloned by limiting dilution. Cells were cultured at 37° C./6% CO2 in complete medium with 10% FBS and appropriate selection markers.
The day prior to performing the assay Orai1/STIM1 stable cells are plated in 50 μL of complete medium at 90-95% confluence in a 384 well plate. Cells are grown at 37° C./6% CO2 overnight. On the day of the assay, 1.5 μM fluo-4-AM (Invitrogen) in complete medium is added to the cells, which are then incubated for 1 hour at RT. Cells are washed once in Ca^2+-free HBSS (Hank's buffered saline solution) and 35 μl of Ca^2+-free HBSS is added to each well. Test compounds are added to wells in a 10 μL Ca^2+-free HBSS solution, prepared at 4.5× the desired final concentration, and incubated for 30 minutes at RT. The initial baseline fluorescence signal is then measured with a FLIPR^384 (Molecular Devices) plate reader. Calcium entry is initiated by adding 5 μl of 10×CaCl2 (10 mM) in HBSS, and changes in cellular fluorescence are measured with the FLIPR^384 plate reader. In each well, the magnitude of the fluorescence signal as a result of calcium entry into the cell is determined by calculating the difference between the peak fluorescence signal measured after calcium addition and the initial baseline fluorescence signal (designated Peak-Basal). IC50 values are typically calculated as the concentration that inhibited 50% of the Peak-Basal signal.

Test [2] deals with RBL-2H3 cells. The test is described as follows: Fluorescence-based assay of store-operated calcium entry in RBL-2H3 cells. The class given is cell-based. Particulars: Rattus norvegicus, store-operated calcium entry after thapsigargin, Fluo-4, 50% inhibition of Upslope. Here is the method:
B. Fluorescence-based Assay of Store-Operated Calcium Entry in RBL-2H3 Cells. Cells:
RBL-2H3 cells are obtained from ATCC and maintained in complete medium with 10% FBS at 37° C./6% CO2.
The day prior to performing the assay, RBL-2H3 cells are plated in 50 μL of complete medium in a 384 well plate. Cells are grown at 37° C./6% CO2 overnight and grow to 50-60% confluence by the next day. On the assay day, 1.5 μM Fluo-4-AM dye (Invitrogen) in complete medium is added and incubated for 1 hour at RT. Cells are washed twice in Ca^2+-free HBSS buffer and 35 μL Ca^2+-free HBSS buffer is added to each well. 10 μL of a test compound prepared in a Ca^2+-free HBSS solution at 4.5× of the desired concentration is added to a well and incubated for 5 minutes at RT. 10 μL of thapsigargin prepared in a Ca^2+-free HBSS solution at 5.5× of the desired concentration (5.5 uM) is added to each well and incubated for an additional 25 minutes. The initial baseline fluorescence signal is measured with a FLIPR^384 (Molecular Devices) plate reader. 5 μL of 12× calcium in HBSS (12 mM) is added and changes in cellular fluorescence are measured with the FLIPR^384 plate reader. In each well, the change in the fluorescent signal as a function of time due to calcium entry into the cell is determined by calculating the difference between the fluorescent signal measured 7 seconds after calcium addition and the initial baseline fluorescence signal at time zero (t=0). This parameter is designated Upslope. The IC50 value is calculated as the concentration at which 50% of the Upslope is inhibited.

T1 sequence (Q96D31 whole entry): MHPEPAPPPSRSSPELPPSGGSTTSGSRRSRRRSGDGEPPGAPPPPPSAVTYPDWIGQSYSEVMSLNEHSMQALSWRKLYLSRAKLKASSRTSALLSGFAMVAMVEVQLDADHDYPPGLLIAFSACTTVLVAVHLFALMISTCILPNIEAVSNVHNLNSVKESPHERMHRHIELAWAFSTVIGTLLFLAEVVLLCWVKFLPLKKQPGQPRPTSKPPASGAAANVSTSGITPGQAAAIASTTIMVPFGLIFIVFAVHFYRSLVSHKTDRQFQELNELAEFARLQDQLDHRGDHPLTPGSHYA

Take `Cn1nc(C(F)(F)F)cc1-c1cnc(NCc2c(F)cccc2F)s1` [Compound 2, N-(2,6-difluorobenzyl)-5-(1-methyl-3-(trifluoromethyl)-1H-pyrazol-5-yl)thiazol-2-amine]: the IC50 in test [1] was 600 to 1200 nM; in test [2], less than 600 nM.

Consider `Cn1nc(C(F)(F)F)cc1-c1cnc(NCc2ccccc2F)s1` [Compound 4, N-(2-fluorobenzyl)-5-(1-methyl-3-(trifluoromethyl)-1H-pyrazol-5-yl)thiazol-2-amine], for which the half-inhibitory concentration (IC50) in test [1] and in test [2] was less than 600 nM in each case.

With `Cn1nc(C(F)(F)F)cc1-c1cnc(NCc2c(F)cncc2F)s1` [Compound 11, N-((3,5-difluoropyridin-4-yl)methyl)-5-(1-methyl-3-(trifluoromethyl)-1H-pyrazol-5-yl)thiazol-2-amine], the figures for the IC50 in test [1] and in test [2] were greater than 1200 nM and 600 to 1200 nM, respectively.

As for `Cc1cc2c(cc1-c1cnc(NCc3c(F)cncc3F)s1)OC(F)(F)O2` [Compound 14, 5-(2,2-difluoro-6-methylbenzo[d][1,3]dioxol-5-yl)-N-((3,5-difluoropyridin-4-yl)methyl)thiazol-2-amine], the results for the IC50 in test [1] and in test [2] were 600 to 1200 nM and less than 600 nM, respectively.

Turning to `Cc1cc2c(cc1-c1cnc(OCc3c(F)cccc3F)s1)OC(F)(F)O2` [Compound 31], the IC50 in test [1] and in test [2] was less than 600 nM throughout.

Regarding `Cn1nc(C(F)(F)F)cc1-c1cnc(OCc2c(F)cccc2F)s1` [Compound 32, 2-[(2,6-difluorophenyl)methoxy]-5-[1-methyl-3-(trifluoromethyl)pyrazol-5-yl]-1,3-thiazole], the IC50 in test [1] and in test [2] was less than 600 nM in each case.

Take `Cn1nc(C(F)(F)F)cc1-c1ccc(NCc2ccccc2F)s1` [Compound 34, N-(2-fluorobenzyl)-5-(1-methyl-3-(trifluoromethyl)-1H-pyrazol-5-yl)thiophen-2-amine]: the IC50 in test [1] is greater than 1200 nM; in test [2], 600 to 1200 nM.

Turning to `Cn1nc(C(F)(F)F)cc1-c1ccc(NCc2c(F)cccc2F)s1` [Compound 35, N-(2,6-difluorobenzyl)-5-(1-methyl-3-(trifluoromethyl)-1H-pyrazol-5-yl)thiophen-2-amine], the IC50 in test [1] is 600 to 1200 nM; in test [2], less than 600 nM.

For the compound `Cc1cc2c(cc1-c1ccc(NCc3c(F)cccc3F)s1)OC(F)(F)O2` [Compound 36, 5-(2,2-difluoro-6-methylbenzo[d][1,3]dioxol-5-yl)-N-(2,6-difluorobenzyl)thiophen-2-amine], the IC50 in test [1] is 600 to 1200 nM; in test [2], greater than 1200 nM.

The term IC50 denotes the midpoint of a concentration-inhibition curve.

For the origin of these results see US20130143927A1, “COMPOUNDS THAT MODULATE INTRACELLULAR CALCIUM” (CalciMedica, Inc., priority 2011, published 2013).
